The test system of test [1] is MIAPaCa-2 (pancreas) cancer cells. Put plainly: In vitro cytotoxic activity MTT assay, MIAPaCa-2. The class given is cell-based. The conditions noted are these: Homo sapiens, MIA PaCa-2, cells exposed for 96 hours, read-out: IC50, 50% inhibition of cell proliferation. The method, then: (§1) Compounds 1-12 were screened for their in vitro cytotoxic activity utilizing a 3-(4,5-dimethyl-thiazol-2-yl)-2,5-diphenyltetrazolium bromide (MTT) assay against selected cancer human cell lines consisting of PC3 (prostate), HCT116 (colon), A375 (melanoma), H1299 (lung), MIAPaCa-2 (pancreas), HL60 (leukemia), MCF7 (breast), MDA-MB-231 (breast) (T. Mosmann, J. Immmol. Meth., 1983, 65, 55-63). The cells were cultured at 37° C. in RMPI1640 medium supplemented with 10% fetal bovine serum, 50 IU/mL penicillin, and 50 μg/mL streptomycin in a 5% CO2 incubator. All cells were sub-cultured 3 times/week by trypsinisation. Viable cells were seeded and allowed to adhere for 12 h before a test drug was added in 96-well plates at an initial density of 1.0×10^5 cells/mL. Tumour cell lines were separately exposed to various concentrations of the tested compounds followed by incubation at a temperature of 37° C. during 96 h inside a medium of fresh RMPI 1640. Cells were subsequently incubated at 37° C. using MTT at 0.5 mg/mL during 4 h. After removal of supernatant, formazan crystals were dissolved in isopropanol and the optical density was measured at 570 nm. CX-4945 was used as a positive control.
(In general: Tetrazolium assays rely on reduction of a dye to a coloured formazan, in cell work by metabolically active cells.)

Test [2] concerns A375 (melanoma) cancer cells. In words: In vitro cytotoxic activity MTT assay, A375. The class given is cell-based. The conditions noted are these: Homo sapiens, A-375, cells exposed for 96 hours, read-out: IC50, 50% inhibition of cell proliferation. The method, then:
as §1

Test [3] has as its system H1299 (lung) cancer cells. Put plainly: In vitro cytotoxic activity MTT assay, H1299. The class given is cell-based. Particulars: Homo sapiens, NCI-H1299, cells exposed for 96 hours, read-out: IC50, 50% inhibition of cell proliferation. The method, then:
as §1

The test system of test [4] is MCF7 (breast) cancer cells. In words: In vitro cytotoxic activity MTT assay, MCF7. It is filed as cell-based. Particulars: Homo sapiens, cells exposed for 96 hours, read-out: IC50, 50% inhibition of cell proliferation. The method, then: as §1
Test [5] has as its target T1, recombinant human CK2 (RRββ-holoenzyme) (Homo sapiens, UniProt P68400).
T1 construct: purchased Millipore
In words: CK2 Kinase Assay (33P-ATP, substrate peptide RRRDDDSDDD). The conditions noted are these: final ATP concentration 15 μM, 10 min at 30° C.; read-out: protein kinase CK2 IC50. It is filed as biochemical. As for the experimental part:
CK2 Kinase Assay was conducted using the protocol as described in Pierre F. et al; J. Med. Chem. 2011, 54, 635-654. The tested compounds in aqueous solution were added at a volume of 10 μL to a reaction mixture comprising 10 μL of assay dilution buffer (ADB; 20 mM MOPS, pH 7.2, 25 mM β-glycerol phosphate, 5 mM EGTA, 1 mM sodium orthovanadate, and 1 mM dithiothreitol), 10 μL of substrate peptide (RRRDDDSDDD, dissolved in ADB at a concentration of 1 mM), 10 μL of recombinant human CK2 (RRββ-holoenzyme, 25 ng dissolved in ADB; Millipore). Reactions were initiated by the addition of 10 μL of ATP solution (90% 75 mM MgCl2, 75 μM ATP (final ATP concentration:15 μM) dissolved in ADB; 10% [γ-33P] ATP (stock 1 mCi/100 μL; 3000 Ci/mmol (Perkin-Elmer) and maintained for 10 min at 30° C. The reactions were quenched with 100 μL of 0.75% phosphoric acid and then transferred to and filtered through a phosphor cellulose filter plate (Millipore). After washing each well five times with 0.75% phosphoric acid, the plate was dried under vacuum for 5 min and, following the addition of 15 μL of scintillation fluid to each well, the residual radioactivity was measured using a Wallac […]. The IC50 values were derived from eight concentrations of test inhibitors.

The subject of test [6] is HL60 (leukemia) cancer cells. Put plainly: In vitro cytotoxic activity MTT assay, HL60. The class given is cell-based. The conditions noted are these: Homo sapiens, HL-60, cells exposed for 96 hours, read-out: IC50, 50% inhibition of cell proliferation. The method, then: as §1
The subject of test [7] is HCT116 (colon) cancer cells. In words: In vitro cytotoxic activity MTT assay, HCT116. The class given is cell-based. The conditions noted are these: Homo sapiens, HCT-116, cells exposed for 96 hours, read-out: IC50, 50% inhibition of cell proliferation. As for the experimental part: as §1
The test system of test [8] is PC3 (prostate) cancer cells. Put plainly: In vitro cytotoxic activity MTT assay, PC3. It is filed as cell-based. The conditions noted are these: Homo sapiens, Prostate cell, cells exposed for 96 hours, read-out: IC50, 50% inhibition of cell proliferation. As for the experimental part: as §1
Test [9] has as its system MDA-MB-231 (breast) cancer cells. In words: In vitro cytotoxic activity MTT assay, MDA-MB-231. The class given is cell-based. The conditions noted are these: Homo sapiens, cells exposed for 96 hours, read-out: IC50, 50% inhibition of cell proliferation. The method, then: as §1

T1 sequence (P68400 whole entry): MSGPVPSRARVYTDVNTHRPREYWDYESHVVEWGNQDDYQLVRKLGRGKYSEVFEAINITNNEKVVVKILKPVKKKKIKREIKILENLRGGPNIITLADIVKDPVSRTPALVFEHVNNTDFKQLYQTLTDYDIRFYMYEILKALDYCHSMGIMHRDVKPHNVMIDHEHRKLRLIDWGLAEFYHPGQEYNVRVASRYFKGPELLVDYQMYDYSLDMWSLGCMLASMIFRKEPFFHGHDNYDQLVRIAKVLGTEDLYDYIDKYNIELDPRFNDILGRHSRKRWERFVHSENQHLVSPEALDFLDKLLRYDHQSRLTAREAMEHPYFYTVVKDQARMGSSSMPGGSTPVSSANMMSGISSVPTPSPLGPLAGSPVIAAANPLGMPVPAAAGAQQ
T1 sequence (P67870 whole entry partner): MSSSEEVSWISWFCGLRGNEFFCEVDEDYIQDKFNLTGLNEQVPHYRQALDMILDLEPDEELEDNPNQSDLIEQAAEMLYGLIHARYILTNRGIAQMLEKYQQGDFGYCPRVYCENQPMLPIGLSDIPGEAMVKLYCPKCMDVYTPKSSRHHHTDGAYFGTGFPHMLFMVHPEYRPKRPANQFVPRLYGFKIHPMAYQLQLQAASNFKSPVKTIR

As to `Clc1cccc(Nc2nc3c(nc4ccncn43)c3cnccc23)c1` [Compound 1, N-(3-chlorophenyl)pyrimido[6′,1′:2,3]imidazo[4,5-c][2,6]naphthyridin-5-amine], the IC50 in [1] was found to be 900 nM; in [2], 2800 nM; in test [3], 2100 nM; in [4] it was 5100 nM; in test [5], 12 nM; in [6], 3400 nM. Besides, the IC50 amounted to 1200 nM in test [7], 1300 nM in test [8] and 3900 nM in test [9].

Source of the values: patent publication US12006317B1, “5-substituted aminopyrimido [6′,1′:2,3] imidazo [4,5-c] [2,6] naphthyridine compounds as CK2 inhibitors” (KING FAISAL UNIVERSITY, priority 2023, dated 2024).
